According to patent EP0620225B1, “Cephalosporin derivatives” (Basilea Pharmaceutica AG, priority 1993, dated 1994):
Converted amounts (≈) assume the structure as drawn.

Key:
M.catarrhalis = test: In vitro activity against selected species (MIC50, MIC90, range); format: cell-based; details: Moraxella catarrhalis, medium IsoB
S.aureus MSSA = test: as above; format: cell-based; details: Staphylococcus aureus, medium MHB (Mueller Hinton Broth)
Escherichia coli 25922 = test: Efficacy against systemic infections (septicemia) in mice; format: in vivo; details: 96 h, survival day 4
Protocol: (§1) Septicemia was induced in outbred Swiss albino mice (Jbm MoRo [specific pathogen free]; weight 16 to 20 g, Biomedical Research Laboratories, Füllinsdorf, Switzerland). Mice were infected by intraperitoneal injection of diluted overnight cultures of the test organisms. Bacterial challenge doses were 4-10 times the number of organisms required to kill 50% of untreated animals within 48 h. The test compounds were administered p.o. or s.c. 1 and 3 h after the bacterial challenge. To treat the infection with Pseudomonas aeruginosa BA an additional dose was given 5 h after challenge. Control and treatment groups at each dose were composed of five mice each. The 50% effective dose (ED50, in milligrams per kilogram) was calculated by probit analysis as described by Finney (Finney, D.J. 1978, Statistical method in biological assay, 3rd ed. Charles Griffin & Co., Ltd., London), from the survival rates on day 4 after infection.

S.aureus Smith = test: as above; format: in vivo; details: Staphylococcus aureus, 96 h, sc 1 and 3 h after challenge, survival day 4
Protocol: as §1

S.aureus MRSA = test: In vitro activity against selected species (MIC50, MIC90, range); format: cell-based; details: Staphylococcus aureus, medium MHA (Mueller Hinton Agar) +NaCl
Protocol: (§2) In vitro activity was determined by minimum inhibitory concentration in a microorganism spectum by the agar dilution method in Mueller Hinton agar.

E.faecalis [1] = test: as above; format: cell-based; details: Enterococcus faecalis, medium MHA
Protocol: as §2

S.pyogenes B15 = test: Antibacterial spectrum (MIC), agar dilution; format: cell-based; details: Streptococcus pyogenes, read-out: MIC
Protocol: as §2

S.agalactiae QK44 = test: Antibacterial spectrum (MIC), agar dilution; format: cell-based; details: Streptococcus agalactiae, read-out: MIC
Protocol: as §2

H.influenzae 1 = test: Antibacterial spectrum (MIC), agar dilution; format: cell-based; details: Haemophilus influenzae, read-out: MIC
Protocol: as §2

P.mirabilis 2117 = test: Antibacterial spectrum (MIC), agar dilution; format: cell-based; details: Proteus mirabilis, read-out: MIC
Protocol: as §2

E.faecalis 6 = test: Antibacterial spectrum (MIC), agar dilution; format: cell-based; details: Enterococcus faecalis, read-out: MIC
Protocol: as §2

C.freundii 902 = test: Antibacterial spectrum (MIC), agar dilution; format: cell-based; details: Citrobacter freundii, read-out: MIC
Protocol: as §2

N.meningitidis 69480 = test: Antibacterial spectrum (MIC), agar dilution; format: cell-based; details: Neisseria meningitidis, read-out: MIC
Protocol: as §2

P.aeruginosa 27853 = test: Antibacterial spectrum (MIC), agar dilution; format: cell-based; details: Pseudomonas aeruginosa, read-out: MIC
Protocol: as §2

K.pneumoniae 418 = test: Antibacterial spectrum (MIC), agar dilution; format: cell-based; details: Klebsiella pneumoniae, read-out: MIC
Protocol: as §2

S.pneumoniae Q19 = test: Antibacterial spectrum (MIC), agar dilution; format: cell-based; details: Streptococcus pneumoniae, read-out: MIC
Protocol: as §2

E.cloacae 908SSi = test: Antibacterial spectrum (MIC), agar dilution; format: cell-based; details: Enterobacter cloacae, read-out: MIC
Protocol: as §2

C.freundii 43 = test: Antibacterial spectrum (MIC), agar dilution; format: cell-based; details: Citrobacter freundii, read-out: MIC
Protocol: as §2

M.catarrhalis RA21 = test: Antibacterial spectrum (MIC), agar dilution; format: cell-based; details: Moraxella catarrhalis, read-out: MIC
Protocol: as §2

P.vulgaris 1028 = test: Antibacterial spectrum (MIC), agar dilution; format: cell-based; details: Proteus vulgaris, read-out: MIC
Protocol: as §2

S.viridans group 016 = test: Antibacterial spectrum (MIC), agar dilution; format: cell-based; details: Streptococcus viridans, read-out: MIC
Protocol: as §2

S.aureus 6538 = test: Antibacterial spectrum (MIC), agar dilution; format: cell-based; details: Staphylococcus aureus, read-out: MIC
Protocol: as §2

E.coli 25922 = test: Antibacterial spectrum (MIC), agar dilution; format: cell-based; details: Escherichia coli, read-out: MIC
Protocol: as §2

S.marcescens 69438 = test: Antibacterial spectrum (MIC), agar dilution; format: cell-based; details: Serratia marcescens, read-out: MIC
Protocol: as §2

S.aureus 734 MRSA = test: Antibacterial spectrum (MIC), agar dilution; format: cell-based; details: Staphylococcus aureus, read-out: MIC
Protocol: as §2

E.cloacae 908R = test: Antibacterial spectrum (MIC), agar dilution; format: cell-based; details: Enterobacter cloacae, read-out: MIC
Protocol: as §2

Acinetobacter sp.51-156 = test: Antibacterial spectrum (MIC), agar dilution; format: cell-based; details: SP.51156, read-out: MIC
Protocol: as §2

X.maltophilia 1AC739 = test: Antibacterial spectrum (MIC), agar dilution; format: cell-based; details: Stenotrophomonas maltophilia, read-out: MIC
Protocol: as §2

M.morganii 6H-137 = test: Antibacterial spectrum (MIC), agar dilution; format: cell-based; details: Morganella morganii, 6H137, read-out: MIC
Protocol: as §2

E.faecium = test: In vitro activity against selected species (MIC50, range); format: cell-based; details: Enterococcus faecium, medium MHA
Protocol: as §2

S.pneumoniae PEN-R = test: In vitro activity against selected species (MIC50, MIC90, range); format: cell-based; details: Streptococcus pneumoniae; for MIC: MIC range
S.viridans group = test: as above; format: cell-based; details: Streptococcus viridans
E.faecalis [2] = test: as above; format: cell-based; details: Enterococcus faecalis, medium IsoB
[3] = medium IsoB (Isosensitest Broth)

MIC (M.catarrhalis; MIC range): 1 to 32 µg/mL (≈ 1.98 to 63.4 µM)
MIC50 (M.catarrhalis): 4 µg/mL (≈ 7.93 µM)
MIC90 (M.catarrhalis): 16 µg/mL (≈ 31.7 µM)
MIC (S.aureus MSSA; MIC range): 0.5 to 1 µg/mL (≈ 0.991 to 1.98 µM)
MIC50 (S.aureus MSSA): 1 µg/mL (≈ 1.98 µM)
MIC90 (S.aureus MSSA): 1 µg/mL (≈ 1.98 µM)
MIC (S.aureus MRSA; MIC range): 16 to 32 µg/mL (≈ 31.7 to 63.4 µM)
MIC50 (S.aureus MRSA): 16 µg/mL (≈ 31.7 µM)
MIC90 (S.aureus MRSA): 16 µg/mL (≈ 31.7 µM)
MIC (E.faecalis [1]; MIC range): 1 to 2 µg/mL (≈ 1.98 to 3.96 µM)
MIC50 (E.faecalis [1]): 1 µg/mL (≈ 1.98 µM)
MIC90 (E.faecalis [1]): 2 µg/mL (≈ 3.96 µM)
MIC (S.pyogenes B15): ≤ 0.06 µg/mL
MIC (S.agalactiae QK44): 0.25 µg/mL (≈ 0.495 µM)
MIC (H.influenzae 1): 0.25 µg/mL (≈ 0.495 µM)
MIC (P.mirabilis 2117): ≤ 0.06 µg/mL
MIC (E.faecalis 6): 1 µg/mL (≈ 1.98 µM)
MIC (C.freundii 902): ≤ 0.06 µg/mL
MIC (N.meningitidis 69480): ≤ 0.06 µg/mL
MIC (P.aeruginosa 27853): 8 µg/mL (≈ 15.9 µM)
MIC (K.pneumoniae 418): ≤ 0.06 µg/mL
MIC (S.pneumoniae Q19): ≤ 0.06 µg/mL
MIC (E.cloacae 908SSi): 0.12 µg/mL (≈ 0.238 µM)
MIC (C.freundii 43): 2 µg/mL (≈ 3.96 µM)
MIC (M.catarrhalis RA21): 8 µg/mL (≈ 15.9 µM)
MIC (P.vulgaris 1028): 1 µg/mL (≈ 1.98 µM)
MIC (S.viridans group 016): 1 µg/mL (≈ 1.98 µM)
MIC (S.aureus 6538): 0.5 µg/mL (≈ 0.991 µM)
MIC (E.coli 25922): ≤ 0.06 µg/mL
MIC (S.marcescens 69438): 0.5 µg/mL (≈ 0.991 µM)
MIC (S.aureus 734 MRSA): 16 µg/mL (≈ 31.7 µM)
MIC (E.cloacae 908R): 8 µg/mL (≈ 15.9 µM)
MIC (Acinetobacter sp.51-156): 16 µg/mL (≈ 31.7 µM)
MIC (X.maltophilia 1AC739): > 32 µg/mL
MIC (M.morganii 6H-137): ≤ 0.06 µg/mL
MIC (E.faecium; MIC range): 1 to 32 µg/mL (≈ 1.98 to 63.4 µM)
MIC50 (E.faecium): 4 µg/mL (≈ 7.93 µM)
MIC (S.pneumoniae PEN-R; [3]): 0.12 to 0.5 µg/mL (≈ 0.238 to 0.991 µM)
MIC (S.pneumoniae PEN-R; medium IsoB + 20% serum): 0.12 to 0.5 µg/mL
MIC50 (S.pneumoniae PEN-R; [3]): 0.25 µg/mL (≈ 0.495 µM)
MIC90 (S.pneumoniae PEN-R; [3]): 0.5 µg/mL (≈ 0.991 µM)
MIC50 (S.pneumoniae PEN-R; medium IsoB + 20% serum): 0.5 µg/mL
MIC50 (S.viridans group): 2 µg/mL (≈ 3.96 µM)
MIC90 (S.viridans group): 2 µg/mL (≈ 3.96 µM)
MIC (S.viridans group; MIC range): 0.12 to 8 µg/mL (≈ 0.238 to 15.9 µM)
MIC (E.faecalis [2]; MIC range): 0.25 to 2 µg/mL (≈ 0.495 to 3.96 µM)
MIC50 (E.faecalis [2]): 1 µg/mL (≈ 1.98 µM)
MIC90 (E.faecalis [2]): 2 µg/mL (≈ 3.96 µM)
SMILES: Nc1nc(/C(=N/O)C(=O)N[C@@H]2C(=O)N3C(C(=O)O)=C(/C=C4\CCN(C5CC5)C4=O)CS[C@H]23)cs1 [D, [6R-[3(E),6α,7β(Z)]]-7-[[(2-Amino-4-thiazolyl)(hydroxyimino)-acetyl]amino] -3-[[1-cyclopropyl-2-oxo-3-pyrrolidinylidene]-methyl)-8-oxo-5-thia-1-azabicyclo[4.2.0]-oct-2-ene-2-carboxylic acid]
ED50 (Escherichia coli 25922; Escherichia coli 25922, po (orally) 1 and 3 h after challenge): 3 mg/kg
ED50 (Escherichia coli 25922; Escherichia coli, E.coli 25922, sc 1 and 3 h after challenge): ≤ 0.1 mg/kg
ED50 (S.aureus Smith): < 1 mg/kg
